Experimental data: US20160243011A1, “Formulations Comprising Idebenone, N-Acetyl-S-Farnesyl-L-Cysteine and Ergothioneine and Uses Thereof” (ELIZABETH ARDEN, INC., priority 2012, published 2016)

Assays:
[1] = test system: IL-6; assay: UVB induced IL-6 release in NHEKs (ELISA); assay type: cell-based, Human; conditions: for EPF Score: Example 8 (8A), IL-6
Procedure: (§1) In order to evaluate the impact of UV-induced inflammation in human skin, primary cell monolayer cultures were exposed to different types of UV radiation, i.e. UVB and UVA. Primary Human Dermal Fibroblasts (HDFs) were irradiated with UVA (350 nm) and Normal Human Epidermal Keratinocytes cells (NHEKs) with UVB (305 nm). HDFs were cultured in Dulbecco's Modified Eagle Medium (DMEM) basal medium (Life Technologies, Grand Island, N.Y.), supplemented with 10% v/v fetal bovine serum (FBS), (referred to as supplemented media) at 37° C. with 5% CO2 NHEKs were cultured in Epilife® basal medium (Life Technologies, Grand Island, N.Y.), supplemented with 60 μM calcium, 0.2% v/v bovine pituitary extract (BPE), 5 μg/ml bovine insulin, 0.18 μg/ml hydrocortisone, 5 μg/ml bovine transferrin, 5 μg/ml, 0.2 ng/ml human epidermal growth factor (referred to as supplemented media) at 37° C. with 5% CO2.
(§2) In order to avoid possible immunomodulating effects of these agents during compound treatments, cells were kept in DMEM or Epilife® basal medium without growth supplements (referred to as depleted media). Cells were plated at a concentration of 3.8×10^4 cells/well in supplemented media in 24-well plates. After cells were allowed to adhere (24 hours), media was changed to depleted media.
(§3) For “blend” testing, a formulation of idebenone, Arazine™ and ergothioneine (1:1:1 molar ratio) was prepared before mixing to medium. Six hours after pre-treatments, to induce a pro-inflammatory response, pre-treatment media was removed and replaced with phosphate-buffered saline (PBS).
(§4) Immediately after UV irradiation, cells were placed in fresh depleted medium for 24 hours. Cell cultures were examined for viability by the reduction of 3-(4,5-dimethylthiazol-2-yl)-5-(3-carboxymethoxyphenyl)-2-(4-sulfophenyl)-2H-tetrazolium (MTS assay; Promega, Madison, Wis.) to determine the percentage of viable cells after compound and UV irradiation. Media supernatants were harvested from non-irradiated and UV irradiated cells and assayed by enzyme-linked immunosorbent assays (ELISA) for the stimulated release of pro-inflammatory mediators. NHEKs were assayed for concentrations of Interleukin-6 (IL-6) and Tumor Necrosis Factor-alpha (TNF-alpha) using appropriate protein standards (BD Biosciences; San Jose, Calif.). HDFs were assayed for concentrations of IL-6 (BD Biosciences) or pro-Matrix Metalloproteinase-1 (pro-MMP-1) using appropriate protein standards (R&D Systems; Minneapolis, Minn.).
(§5) Control groups contained non-irradiated cells. Twenty four hours later, cell medium were assayed for the presence of pro-inflammatory mediators by ELISA.
(§6) To test these anti-oxidants for anti-inflammatory properties, primary Human Epidermal Keratinocytes (NHEKs) were cultured in the presence of each ingredient for 6 hours. Ingredients were then removed and cells were irradiated with 25 mJ/cm2 UVB. Media supernatants were collected after 24 hours and analyzed by ELISA for IL-6 and TNF-α. All ingredients were tested at 1 μM.

[2] = test system: TNFα; assay: UVB induced TNFα release in NHEKs (ELISA); assay type: cell-based, Human; conditions: for EPF Score: Example 8 (8B), TNFα
Procedure: as §1, §2, §3, §4, §5, §6

[3] = Radical scavenging capacity (oxidation of ABTS by metmyoglobin); assay type: biochemical; conditions: for EPF Score: Example 3, scores: 10^−3 M=5, 10^−4 M=15, 10^−5 M=20; for Effective and oxidant conc: lowest effective concentration, OD 750 nm
From the text: This assay analyzed the overall antioxidant capacity of test ingredients for the ability to inhibit the oxidation of 2,2′-azino-bis(3-ethylbenzothiazoline-6-sulphonic acid) (ABTS). to ABTS.^+ by metmyoglobin. The testing involved the suppression of optical density (OD) at 750 nm to a degree that is proportional to an effective oxidation inhibition. The EPF scoring system was based on the lowest effective concentration as previously described by MacDaniel et al., 2005 and scores were assigned as follows: 10^−3 M=5; 10^−4 M=15; 10^−5 M=20.

[4] = test system: Human LDL; assay: LDL pro-oxidative system measuring primary oxidation by-products; assay type: biochemical; conditions: 100 μM; for Lipid hydrogen-peroxide % protection: CuSO4 oxidative system, 24 hours; for EPF Score: Example 4
Procedure: Human LDL was oxidized with or without 0.1 mM materials under a CuSO4 oxidative system in Ham's F-10 medium.

[5] = test system: Rat liver microsomes; assay: Microsome pro-oxidative system measuring secondary oxidation by-products (TBARS); assay type: biochemical; conditions: 100 μM; for Lipid MDA % protection: NADPH/ADP/Fe^3+ oxidative system, 24 hours; for EPF Score: Example 5
Procedure: Rat liver microsomes were oxidized with or without test ingredients at 0.1 mM using a NADPH/ADP/Fe^3+ oxidative system. Secondary oxidation products were quantified after 24 hours incubation by measuring MDA equivalents directly utilizing the production of Thiobarbituric acid-reactive substances (TBARS). Results are expressed as the change in optical density (OD) at 532 nm to a degree that is proportional to an effective oxidation inhibition based on 1,1,3,3-tetraethoxypropane as MDA-TBA production standard.

[6] = test system: Primary Human Epidermal Keratinocytes (NHEKs); assay: UVB induced DNA damage (thymine dimer formation); assay type: cell-based; conditions: 1 μM, 6 hours pre-treatment; UVB 200 mJ/cm^2
Procedure: Primary Human Epidermal Keratinocytes (NHEKs) were cultured in the presence of each test ingredient (1 μM) for 6 hours and later removed prior to UVB irradiation (200 mJ/cm^2). Cells were fixed after 1 hour and stained with anti-thymine dimer antibody. Positive rounded stained cells were counted using a fluorescence microscope.

[7] = test system: EpiDerm™ inserts; assay: UVB induced sun burn cell (SBC) formation using EpiDerm; assay type: cell-based; conditions: for EPF Score: Example 7, 1 mM
Procedure: EpiDerm™ inserts (MatTek®) were topically treated in the presence of each test ingredient for 6 hours, after which they were removed, inserts were irradiated with 200 mJ/cm^2 UVB, and they fixed for H&E staining after 24 hours. The number of sun burn cells (SBCs) (white arrows) was counted. All compounds were tested at 1 mM.

[8] = test system: IL-6; assay: UVA induced IL-6 production in HDFs (ELISA); assay type: cell-based, Human; conditions: for EPF Score: Example 9 (9A), IL-6
Procedure: as §1, §2, §3, §4
(§7) To test these anti-oxidants for anti-inflammatory and anti-aging properties, primary Human Dermal Fibroblasts (HDFs) were cultured in the presence of each ingredient for 6 hours. […] Media supernatants were collected after 24 hours and analyzed by ELISA for IL-6 and pro-MMP-1. All ingredients were tested at 1 μM.

[9] = test system: pro-MMP-1; assay: UVA induced pro-MMP-1 production in HDFs (ELISA); assay type: cell-based, Human; conditions: for EPF Score: Example 9 (9B), MMP-1
Procedure: as §1, §2, §3, §4, §7

[10] = Total Environmental Protection Factor (EPF) score; conditions: 180 point scoring system (20 points for each endpoint measured)
[11] = test system: IL-6; assay: UVB induced IL-6 release in NHEKs (ELISA); assay type: cell-based; conditions: Homo sapiens, light or radiation study; Compound (0.1 μM); NHEK, UVB 25 mJ/cm^2, medium assayed 24 h later; read-out: IL-6 (% inhibited)
[12] = test system: TNFα; assay: UVB induced TNFα release in NHEKs (ELISA); assay type: cell-based; conditions: Homo sapiens, light or radiation study; Compound (0.1 μM); NHEK, UVB 25 mJ/cm^2, medium assayed 24 h later; read-out: TNFα (% inhibited)
[13] = test system: Primary Human Epidermal Keratinocytes (NHEKs); assay: UVB induced DNA damage (thymine dimer formation); assay type: cell-based; conditions: Example 6; 1 μM
[14] = 1 μM, 6 hours pre-treatment, NHEK, UVB 25 mJ/cm2, 24 hours
[15] = 1 μM, 6 hours pre-treatment, HDF, UVA 12.5 J/cm^2, 24 hours

SMILES	EPF Score ([1]; 1 μM)	EPF Score ([2]; 1 μM)	EPF Score [3]	Effective and oxidant conc [3] [mM]	Lipid hydrogen-peroxide % protection [4] [%]	EPF Score [4]	Lipid MDA % protection [5] [%]	EPF Score [5]	DNA damage % protection [6] [%]	EPF Score [7]	EPF Score ([8]; 1 μM)	EPF Score ([9]; 1 μM)	Total EPF score (TTL) [10]	inhibition at 0.1 µM [11] [%]	inhibition at 0.1 µM [12] [%]	further results
O=C(O)CCCC[C@@H]1CCSS1 (racemic) [Lipoic acid]	14	14	5	>3	5	2	25	7	13	8	13	16	94			IL-6 (% inh) [1, 14]: 46%; TNFα (% inh) [2, 14]: 52%; SBC % inhibition ([7]; 1 mM topical, 6 hours, UVB 200 mJ/cm^2, fixed after 24 hours): 27%; IL-6 (% inh) [8, 15]: 62%; MMP-1 (% inh) [9, 15]: 80%
CC(=O)N[C@@H](CSC/C=C(\C)CC/C=C(\C)CCC=C(C)C)C(=O)O [Arazine ™, N-acetyl-S-farnesyl-L-cysteine]														28	33	
C[N+](C)(C)C(Cc1c[nH]c(=S)[nH]1)C(=O)O (centres unmarked) [Ergothioneine, 3-(2-sulfanylidene-1,3-dihydroimidazol-4-yl)-2-(trimethylazaniumyl)propanoate]														12	35	
COc1cc(/C=C/C(=O)O)ccc1O [Ferulic acid]	16	14	20	0.03	94	20	63	17	14	18	13	7	130			inhibition at 1 µM ([1]; Homo sapiens, light or radiation study, 6 hours pre-treatment, NHEK, UVB 25 mJ/cm2, 24 hours, read-out: IL-6 (% inh)): 54%; inhibition at 1 µM ([2]; Homo sapiens, light or radiation study, 6 hours pre-treatment, NHEK, UVB 25 mJ/cm2, 24 hours, read-out: TNFα (% inh)): 55%; inhibition at 1000 µM ([7]; light or radiation study, 1 mM topical, 6 hours, UVB 200 mJ/cm^2, fixed after 24 hours): 64%; inhibition at 1 µM ([8]; Homo sapiens, light or radiation study, 6 hours pre-treatment, HDF, UVA 12.5 J/cm^2, 24 hours, read-out: IL-6 (% inh)): 62%; inhibition at 1 µM ([9]; Homo sapiens, light or radiation study, 6 hours pre-treatment, HDF, UVA 12.5 J/cm^2, 24 hours, read-out: MMP-1 (% inh)): 37%; EPF Score [13]: 5
